Source: patent publication US20230210994A1, “CELL-PENETRATING CONJUGATE SYSTEMS” (Danmarks Tekniske Universitet, priority 2019, published 2023)
“Also recorded” adds a separate entry of the source.

Assays:
[1] = test system: CT-26 cells; test: Cellular internalization of insulin (Novorapid) in CT-26 cells, MALDI-TOF; format: cell-based, mouse; conditions: commercial insulin (20 μl) + conjugate (20 μl), 4 hours
Method: MALDI-TOF is a standard technique for analysis of molecules based upon their mass/charge (m/z) ratio. In this study, the inventors exposed CT-26 cells with commercial insulin (20 μl) and conjugate system, 4-hydroxybutyl L-tryptophanate (20 μl). After 4 hours, the cells were sonicated (ruptured) and cell-debris removed; Resulting supernatant was subjected to MALDI analysis.

[2] = In vivo insulin delivery and bioavailability experiment, oral enteric-coated capsule; design: species or system Sprague-Dawley rats
Method: […] Insulin dosage was estimated to be ˜120 I.U. The capsule was mechanically guided across the duodenum and rat-tail plasma samples were collected for a period of 3 hours (at specified periodic intervals). Blood glucose measurement was made with Glucometer and plasma insulin concentration via ELISA.

[3] = test system: mouse CD-4 (+) T-cells; test: Fluorescent tagging of T-cells, confocal Z-stack imaging; format: cell-based; conditions: 100 μL conjugate (1 mg/ml) added to 500 μL cell suspension, 24 hours
Method: 100 μL 4-hydroxybutyl L-tryptophanate conjugate (1 mg/ml) was added to the cell suspension solution (500 μL; 1×10^5 cells/mL) and incubated for 24 hours. Cells were washed with PBS buffer and analyzed via Z-stack imaging was to confirm internalization of the 4-hydroxybutyl L-tryptophanate conjugate. Cell imaging was done for 0, 24, 48 and 72 hours—though 24 hours was found the optimum time frame.

[4] = test system: CT26 cells; test: Uptake of Oxaliplatin by CT26 cells measured by ICP-MS; format: cell-based, mouse; conditions: for enhancement of OxPt internalization versus OxPt alone: 10 μM OxPt, 24 hours
Method: CT26 cells were seeded in 24-well plate (100.000 cells/mL/well) exposed to Oxaliplatin (Ox-Pt, 10 μM and 30 μM) with/and without conjugate the molar ratio of 1:1, 1:3 and 3:1 respectively. After 1, 4, 24 hours of incubation, media was discarded and the cells were washed with PBS twice, once with heparin (to remove anything associated externally with the cell membrane) and once more with PBS. Then the cells were detached from the wells using trypsin and cells were counted. Finally, each sample was diluted in HCl acid and further diluted in 2% HCl with (0.5 ppb Ir), then Pt content was measured in the ICP-MS.

[5] = test system: CT26 colon cancer cells; test: Internalization of INS-FITC in CT26 cells, flow cytometry and fluorescent imaging; format: cell-based, mouse
Method: CT26 colon cancer cells were seeded in 24-well plates at 100.000 cells/well/mL. After 24 hours, cells were treated with INS-FITC at 10 μM or 30 μM concentration either alone or in combination with the conjugate 4-hydroxybutyl L-tryptophanate in three different molar ratios (1:1, 1:3 or 3:1). Treatments were co-incubated with the CT26 cells for 1 h, 4 h or 24 h. Before observation, cells were washed several times with PBS, and with heparin, to ensure removal of compounds that might remain softly bound to cell membrane and not internalized. Then the washed cells were detached from the wells using trypsin, centrifuged and re-suspended in PBS for analysis by flow cytometry. In flow the cells were gated as singlets (single cell events) and then the fluorescence was recorded for each event in the specific FL channel were the compound has its emission max (INS-FITC: FL1 (525+/−40).

[6] = test system: pig intestine (gut epithelium); test: Binding of conjugate system to the pig intestine (gut epithelium) ex vivo
Method: Biological functionality and compliance was tested utilizing intestinal tissue from pigs. A cross section of the pig intestine (1 cm^2)was cleaned and subjected to the conjugate (1 mg/ml; 3.65 mM). After incubation (1 hour) of said tissue with the conjugate system, 4-hydroxybutyl L-tryptophanate, the tissue was washed and excess mucous layer removed by gentle physical exfoliation (scrapping via a spatula).

[7] = test system: CT26 cells; test: Internalization of resiquimod (R848) in CT26 cells detected by HPLC; format: cell-based, mouse
Method: CT26 cells were seeded in 24-well plates (10^5 cells/well). After 24 hours the cells were treated with either 100 or 300 μM concentration of resiquimod (R848) alone or in combination with the 4-hydroxybutyl L-tryptophanate conjugate. After 4 and 24 hours incubation cells were washed with cold PBS and with heparin solution (0.1 mg/mL heparin in PBS), and detached from the wells using trypsin. Then the cells were diluted in acetonitrile with 0.1% TFA and the amount of R848 was detected by HPLC.

[8] = test system: CT-26 cells; test: Ethidium-homodimer internalization in CT-26 cells, fluorescent confocal microscopy; format: cell-based, mouse
Method: CT-26 cells in culture were co-incubated with the conjugate system, 4-hydroxybutyl L-tryptophanate, (1 mg/ml) and Etidium-homodimer (2 μl/ml) for 1 hour and observed under fluorescent confocal microscope. Working ratio was set as 1:3 and two reaction sets comprising of higher (80 μl) loading and standard loading (40 μl ) were performed. Emission bandwidth was set as 490-550nm and 590-680 nm.

[9] = test system: CT-26 cells; test: Internalization of Paclitaxel (PTX) in CT-26 cells measured by flow cytometry; format: cell-based, mouse
Method: There is a remarkable increment in the percentage of cells containing PTX when co-administered with the conjugate, especially after 24 hours incubation. (c) depicts the amount of PTX internalization expressed as mean fluorescence intensity (MFI).

[10] = cited from earlier work

In the case of `N[C@@H](Cc1c[nH]c2ccccc12)C(=O)OCCCCO` [4-hydroxybutyl L-tryptophanate], the “insulin signal in MALDI-TOF of cell supernatant” value [1] is reported as “clearly distinct”, the “drop in blood sugar” value ([2]; insulin 1.1 mg (~80 I.U) + conjugate 8 mg, within twenty minutes, n=3) is reported as roughly 15% and the “drop in blood sugar” value ([2]; insulin 1.5 mg (~120 I.U.) + conjugate 0.5 mg, within the first hour, n=2) is reported as roughly 20%. The “cellular internalization of the conjugate (Z-stack imaging, fluorescence 488 nm)” value [3] was “confirmed cellular internalization”, the “enhancement of OxPt internalization versus OxPt alone” value ([4]; conjugate:OxPt 10:10 molar ratio) was 37.6% and the “enhancement of OxPt internalization versus OxPt alone” value ([4]; conjugate:OxPt 30:10 molar ratio) was 23.5%. The “internalization percentage of OxPt increased to” value ([4]; 30 μM OxPt, 10:30 ratio (Conj.:OxPt)) was 451%, the “Pt signal in CT26 cells compared to OxPt alone” value ([4]; combination of OxPt and the conjugate, overall) was “increased amount of Pt signal” and the “fluorescence under fluorescent microscope” value ([5]; conjugate alone, post 24-hours incubation) was “No observable fluorescence”. The “percentage increase of INS-FITC internalization (MFI) compared to free insulin at the same concentration” value ([5]; conjugate to insulin 30:10 μM, 24 hours) was “around 72.3%”, the “percentage increase of INS-FITC internalization (MFI)” value ([5]; conjugate:INS-FITC 10:10 μM, 4 hours) was 20.5% and the “percentage increase of INS-FITC internalization (MFI)” value ([5]; insulin to conjugate 30:10 μM, constant from 4 to 24 hours) was 11.4%. The “fluorescence signal on tissue (tissue binding and transmembrane penetration)” value ([6]; conjugate 1 mg/ml (3.65 mM), 1 hour incubation, tissue washed, excess mucous layer removed) was “clear fluorescence signal”, the “normalized fluorescence intensities on tissue versus controls on glass” value ([6]; conjugate 1 mg/ml, 1 hour) was “higher than controls incubated on a glass sample” and the “penetration across mucosal layer and binding to gut epithelium despite repeated washes” value ([6]; pig intestine with mucus) was “deeply penetrate across mucosal layer on intestinal epithelium and bind to the tissue”. The “Fold increase internalization of resiquimod (R848) compared to R848 alone” value (“Fold increase internalization” for short) ([7]; conjugate (100 μM) + R848 (100 μM), 4 hours, listed as 4-hydroxybutyl L-tryptophanate conjugate) was 4.9 fold, the “Fold increase internalization” value ([7]; conjugate (100 μM) + R848 (100 μM), 24 hours) was 0.9 fold and the “Fold increase internalization” value ([7]; conjugate (100 μM) + R848 (300 μM), 4 hours) was 1.4 fold. The “Fold increase internalization” value ([7]; conjugate (100 μM) + R848 (300 μM), 24 hours) was 1.8 fold, the “Fold increase internalization” value ([7]; conjugate (300 μM) + R848 (100 μM), 4 hours) was 1.5 fold and the “Fold increase internalization” value ([7]; conjugate (300 μM) + R848 (100 μM), 24 hours) was 1.1 fold. The “internalization of Ethidium-homodimer (EtDi)” value ([8]; EtDi 2 μl/ml co-administered with conjugate 1 mg/ml, 1 hour) was “confirmed; also recorded: got internalized into the cells”, the “increase of EtDi fluorescence (mean pixel intensity of confocal images) compared with EtDi alone” value ([8]; EtDi combined with the conjugate) was 8.67 fold and the “condition of CT-26 cells and membranes after co-administration” value ([8]; conjugate 1 mg/ml + EtDi 2 μl/ml, 1 hour) was “healthy with fully intact membranes”. The “Z-stack analysis at single cell level” value ([8]; conjugate + EtDi) was “internalization of both the EtDi and conjugate”, the “% cells uptake (1 h), CT-26 cells with PTX internalized” value (shortened to “% cells uptake (1 h), CT-26 cells”) ([9]; Conjugate 10 μM + PTX 10 μM, 1 h) was 4.7% and the “% cells uptake (4 h), CT-26 cells with PTX internalized” value (“% cells uptake (4 h), CT-26 cells” for short) ([9]; Conjugate 10 μM + PTX 10 μM, 4 h) was 6.2%. For the same compound, the “% cells with uptake (24 h), CT-26 cells with PTX internalized” value (“% cells with uptake (24 h), CT-26 cells” below) ([9]; Conjugate 10 μM + PTX 10 μM) was 22.1%, the “% cells uptake (1 h), CT-26 cells” value ([9]; Conjugate 10 μM + PTX 30 μM, 1 h) was 5.0% and the “% cells uptake (4 h), CT-26 cells” value ([9]; Conjugate 10 μM + PTX 30 μM, 4 h) was 6.9%. The “% cells with uptake (24 h), CT-26 cells” value ([9]; Conjugate 10 μM + PTX 30 μM) was 29.2%, the “% cells uptake (1 h), CT-26 cells” value ([9]; Conjugate 30 μM + PTX 10 μM, 1 h) was 11.2% and the “% cells uptake (4 h), CT-26 cells” value ([9]; Conjugate 30 μM + PTX 10 μM, 4 h) was 17.6%. The “% cells with uptake (24 h), CT-26 cells” value ([9]; Conjugate 30 μM + PTX 10 μM, listed as Conjugate) was 49.8%, the “% cells with uptake (24 h), CT-26 cells” value ([9]; Conjugate 30 μM + PTX 10 μM, listed as conjugate) was “up to 50%” and the “Percentage increase in PTX signal (MFI) compared to PTX alone; head: % cells with uptake (24 h)” value (from here on “Percentage increase … % cells with uptake (24 h)”) ([9]; PTX 10 μM, Conjugate:PTX molar ratio 1:1 (10:10)) was 22.3%. The “Percentage increase in PTX signal (MFI) compared to PTX alone; head: % cells uptake (1 h)” value (shortened to “Percentage increase … % cells uptake (1 h)”) ([9]; PTX 10 μM, Conjugate:PTX molar ratio 1:1, 1 h) was 6.8%, the “Percentage increase in PTX signal (MFI) compared to PTX alone; head: % cells uptake (4 h)” value (from here on “Percentage increase … % cells uptake (4 h)”) ([9]; PTX 10 μM, Conjugate:PTX molar ratio 1:1, 4 h) was 12.4% and the “Percentage increase … % cells uptake (1 h)” value ([9]; PTX 10 μM, Conjugate:PTX molar ratio 3:1 (30:10), 1 h) was 20.6%. For the same compound, the “Percentage increase … % cells uptake (1 h)” value ([9]; PTX 10 μM, Conjugate:PTX molar ratio 3:1 (30:10), 1 h, listed as Conjugate) was 7.8%, the “Percentage increase … % cells uptake (4 h)” value ([9]; PTX 10 μM, Conjugate:PTX molar ratio 3:1 (30:10), 4 h) was 32.4% and the “Percentage increase … % cells uptake (4 h)” value ([9]; PTX 10 μM, Conjugate:PTX molar ratio 3:1 (30:10), 4 h, listed as Conjugate) was 11.4%. The “Percentage increase … % cells with uptake (24 h)” value ([9]; PTX 10 μM, Conjugate:PTX molar ratio 3:1 (30:10)) was 56.2%, the “Percentage increase … % cells with uptake (24 h)” value ([9]; PTX 10 μM, Conjugate:PTX molar ratio 3:1 (30:10), listed as Conjugate) was 27.1% and the “Percentage increase … % cells uptake (1 h)” value ([9]; PTX 30 μM, Conjugate:PTX molar ratio 1:3 (10:30), 1 h) was 20.6%. The “Percentage increase … % cells uptake (4 h)” value ([9]; PTX 30 μM, Conjugate:PTX molar ratio 1:3 (10:30), 4 h) was 32.4%, the “Percentage increase … % cells with uptake (24 h)” value ([9]; PTX 30 μM, Conjugate:PTX molar ratio 1:3 (10:30)) was 27.1% and the “Percentage increase … % cells with uptake (24 h)” value ([9]; PTX 30 μM, Conjugate:PTX molar ratio 1:3 (10:30), listed as Conjugate) was 56.2%.

For `Nc1ccc2c(c1)c(-c1ccccc1)[n+](CCCNCCNCCC[n+]1c(-c3ccccc3)c3cc(N)ccc3c3ccc(N)cc31)c1cc(N)ccc21` [EtDi, Ethidium-homodimer, reference compound], the “cell penetration of EtDi” value ([8]; EtDi alone, without conjugate) was “cannot penetrate into the cell”.

For `O=C1[O][Pt]2([NH][C@@H]3CCCC[C@H]3[NH]2)[O]C1=O` [OxPt, Oxaliplatin, reference compound], the “OxPt uptake over time” value ([4]; 30 μM OxPt alone, peaking at 4 h) was “no apparent increase”.

With `CC(=O)O[C@H]1C(=O)[C@@]2(C)[C@H]([C@H](OC(=O)c3ccccc3)[C@]3(O)C[C@H](OC(=O)[C@H](O)[C@@H](NC(=O)c4ccccc4)c4ccccc4)C(C)=C1C3(C)C)[C@]1(OC(C)=O)CO[C@@H]1C[C@@H]2O` [PTX, Paclitaxel, reference compound] the “% cells uptake (1 h), CT-26 cells” value ([9]; PTX 10 μM alone, 1 h) was 2.3%, the “% cells uptake (4 h), CT-26 cells” value ([9]; PTX 10 μM alone, 4 h) was 2.4% and the “% cells with uptake (24 h), CT-26 cells” value ([9]; PTX 10 μM alone) was 7.7%. The “% cells uptake (1 h), CT-26 cells” value ([9]; PTX 30 μM alone, 1 h) was 2.2%, the “% cells uptake (4 h), CT-26 cells” value ([9]; PTX 30 μM alone, 4 h) was 3.0% and the “% cells with uptake (24 h), CT-26 cells” value ([9]; PTX 30 μM alone) was 7.6%.

In the case of `N[C@@H](Cc1c[nH]c2ccccc12)C(=O)O` [tryptophan], the “pKa of deprotonated carboxylic acid (—COO−)” value [10] is given as 2.38 and the “pKa of protonated amino group (—NH3+)” value [10] is given as 9.39.

For “INS-FITC: fluorescently labelled insulin, insulin conjugated with FITC [reference compound]”, the “internalization in cells (share of cells)” value ([5]; INS-FITC alone) was 100%.
